In US7314858B2, “Retrocyclins: antiviral and antimicrobial peptides” (priority 2001, dated 2008):
Changes are numbered by the printed parent chain. “Also recorded” adds a separate entry of the source.

B1: RTD-2: rhesus circular minidefensin, homodimer of two identical nonapeptide elements (SEQ ID NO:17) (peptide, listed as Macaca mulatta)
chain: MRTFALLTAMLLLVALHAQAEARQARADEAAAQQQPGADDQGMAHSFTRPENAALPLSESARGLRCLCRRGVCQLL
modifications: cyclic homodimer of two nonapeptides; SIGNAL (1)...(20)
B2: RTD-3: rhesus circular minidefensin, homodimer of two identical nonapeptide elements (SEQ ID NO:15) (peptide, listed as Macaca mulatta)
chain: B1 chain with A38T, R49W, R62K, L67I, R69T, V72F, Q74R
modifications: cyclic homodimer of two nonapeptides; SIGNAL (1)...(20)

Tests used:
HIV-1 strain JR-CSF = test: HIV-1 JR-CSF infection of CD4+ PBMC, p24 antigen ELISA; type: cell-based; conditions: JR-CSF (R5), peptide 10-20 μg/ml
Protocol: FIG. 5A-C. Anti-HIV-1 activity of retrocyclin. Two strains of HIV-1 and two types of human target cells were used. The IIIB strain is T-cell tropic (X4) and utilizes the CXCR4 co-receptor for entry; the JR-CSF strain is M-tropic (R5) and uses CCR5 for entry. PBMC signifies CD4^+-selected peripheral blood mononuclear cells. […] (A) Two concentrations of retrocyclin (2 μg/ml, 20 μg/ml), 20 μg/ml of the Rhesus circular defensin “RTD-1”, and 20 μg/ml of a horseshoe crab-derived peptide “T140”, reported to only prevent X4 infections, were tested in antiviral assays of against strain IIIB in H9 cells (n=2-6 per peptide; error bars indicate SEM). (B) To confirm our results with primary human cells, similar assays were performed utilizing IIIB virus and CD4^+ PBMC or (C) JR-CSF virus and CD4^+ PBMC. Peptides were not cytotoxic at indicated concentrations, measured by trypan blue exclusion. Average of duplicate experiments are reported for studies with PBMCs. Assay sensitivity=10 pg/ml.
(§1) Either HIV-1-permissive H9 cells were used as targets, or primary CD4^+ lymphocytes from HIV-1-seronegative donors generated from freshly purified peripheral blood mononuclear cells (PBMC) stimulated with a CD3-CD8 bispecific monoclonal antibody. After approximately 7 days, when 98% of these cells co-expressed CD3 and CD4, they were infected with HIV-1 with or without retrocyclin or other test peptide. These cells were maintained in RPMI containing 10% FCS supplemented with 2 mM glutamine, 100 U of penicillin/ml, 10 μg of streptomycin/ml, and 50 U of interleukin 2/ml (R10-50 media).
The p24 assay results shown in FIG. 9 are on a logarithmic scale. A horizontal reference line that passes through 100 on the ordinate scale corresponds to […] of p24 antigen. Results from 3 experiments (each performed with PBMC from a different donor) are shown.

HIV-1 strain IIIB [1] = test: HIV-1 IIIB infection of CD4+ PBMC, p24 antigen ELISA; type: cell-based; conditions: CD4+ PBMC, IIIB (X4), peptide 10-20 μg/ml
Protocol: FIG. 5A-C. Anti-HIV-1 activity of retrocyclin. Two strains of HIV-1 and two types of human target cells were used. The IIIB strain is T-cell tropic (X4) and utilizes the CXCR4 co-receptor for entry; the JR-CSF strain is M-tropic (R5) and uses CCR5 for entry. PBMC signifies CD4^+-selected peripheral blood mononuclear cells. […] (A) Two concentrations of retrocyclin (2 μg/ml, 20 μg/ml), 20 μg/ml of the Rhesus circular defensin “RTD-1”, and 20 μg/ml of a horseshoe crab-derived peptide “T140”, reported to only prevent X4 infections, were tested in antiviral assays of against strain IIIB in H9 cells (n=2-6 per peptide; error bars indicate SEM). (B) To confirm our results with primary human cells, similar assays were performed utilizing IIIB virus and CD4^+ PBMC or (C) JR-CSF virus and CD4^+ PBMC. […] Average of duplicate experiments are reported for studies with PBMCs. Assay sensitivity=10 pg/ml.
Either HIV-1-permissive H9 cells were used as targets, or primary CD4^+ lymphocytes from HIV-1-seronegative donors generated from freshly purified peripheral blood mononuclear cells (PBMC) stimulated with a CD3-CD8 bispecific monoclonal antibody. […] These cells were maintained in RPMI containing 10% FCS supplemented with 2 mM glutamine, 100 U of penicillin/ml, 10 μg of streptomycin/ml, and 50 U of interleukin 2/ml (R10-50 media).
Examining the effect of adding retrocyclin at various times pre- and post-HIV-1 infection. […] Primary CD4^+ PBMC were incubated with HIV-IIIB (FIG. 6) or HIV-JR-CSF for 3 hours in the presence or absence of 20 μg/ml retrocyclin. The cells were subsequently washed in media, and incubated an additional 9 days. Retrocyclin (20 μg/ml) was added back to some of the cultures at time points specified in FIG. 6 and infection was monitored by p24 ELISA as previously described. […]

HSV-2 = test: HSV inactivation microplate assay on ME-180 cells (MTT); type: cell-based; conditions: 2-50 μg/ml, 2 hrs with virus, 72 hrs culture
Protocol: FIG. 14. Inactivation of HSV-1 and HSV-2 by retrocyclin and RC-101. Retrocyclin (left panel) and RC-101 (right panel) at the indicated concentrations were incubated with herpes simplex virus, type 1 (HSV-1) or HSV-2 for 2 hrs and then added to ME-180 cell monolayers. Cells were incubated at 37° C. for 72 hrs, and cytotoxicity was measured with an MTT kit.
Some retrocyclins are slightly active against herpes simplex virus (HSV). To determine if the activity of retrocyclin against HIV-1 was specific or representative of a more global antiviral effect, it was tested its ability to prevent HSV infection in vitro. A quantitative microplate assay was used to screen retrocyclin and retrocyclin-congeners for their ability to inactivate HSV type 1 (HSV-1) and HSV-2. The assay utilized small amounts of peptide and simultaneously evaluated for peptide-induced cytotoxicity. In brief, final peptide concentrations of 2-50 μg/ml were incubated with virus stocks for 2 hrs and added directly to ME-180 human cervical carcinoma cells. Cultures were incubated at 37° C. for 72 hrs and cytotoxicity was measured using a 3-(4,5-dimethylthiazon-2-yl)-2,5-diphenyltetrazolium bromide (MTT) cell proliferation kit (Boehringer-Mannheim, Germany). Calculations to assess antiviral activity and compute “percent protection” are delineated in (90).

primary HIV-1 isolates = conditions: previous assays; included as negative control
From the text: Viral isolates. Primary HIV-1 isolates were obtained from Institutional Review Board-approved Centers for Disease Control and Prevention (CDC) Studies or from the National Institutes of Health Research and Reference Reagent Program and World Health Organization collaborative network. Detailed characteristics of the CDC isolates, including subtype determination based on the envelope region, and co-receptor usage using GHOST cell lines have been described elsewhere. For viruses obtained from the NIH Research and Reference Reagent Program, the reported subtype and co-receptor data were used as supplied. Viral stocks were generated by infecting CD8-depleted normal human peripheral blood mononuclear cells. After filtration through 0.22-μm filters, aliquots of the stocks were stored at −70° C. until used.
Reporter gene-based viral replication assay. JC53-BL cells, an HIV-1 reporter cell line derived from HeLa cells that expresses high levels of CD4 and the HIV co-receptors CXCR4 and CCR5, were a gift of Tranzyme Inc. (Birmingham, Ala.). The JC53-BL cells contain cassettes for luciferase and β-galactosidase, each driven by the HIV-1 LTR. HIV infection (tat production) can be detected either by measuring luciferase activity or by counting blue foci after staining the cells with “X-Gal” (5-Bromo-4-chloro-3-indolyl β-D-galactopyranoside), as described elsewhere in detail. The JC53-BL cells were maintained in Dulbecco's modified Eagle medium supplemented with 10% fetal calf serum. (HyClone, Logan, Utah), 2 mM glutamine (Gibco), 100 units per ml penicillin G and 100 μg/ml streptomycin (GIBCO™, Invitrogen Corp., San Diego, Calif.). Viral titers were determined by adding serial dilutions of the virus stocks, in triplicate, to wells containing 20,000 JC53-BL cells, after supplementing the above medium with 40 μg/ml DEAE (diethylaminoethyl)-dextran. After a 48 hour incubation at 37° C. in 5% CO2, the cells were fixed and stained for β galactosidase, and the blue foci were counted with a light microscope. Multiplicity of infection (MOI) values were taken from the infectious unit data.
In vitro infections were carried out in the presence or absence of θ-defensin peptides. Briefly, JC53-BL cells were harvested from T-150 flasks approximately 18 hours prior to starting the assay with 0.1 mM EDTA in 0.017 M PBS, pH 7.4. The cells were washed and transferred to sterile white 96-well plates (Thermo Labsystems, Franklin, Mass.) at a density of 20,000 cells in 50 μl of medium. […] After this 3-hour preincubation with peptides, viruses were added in media containing 40 μg/ml DEAE-dextran. The final volume was 200 μl per well, and the multiplicity of infection (viruses/cell) ranged from 0.009 to 0.65. After the plates had incubated at 37° C. in 5% CO2 for 48 hours, luciferase activity was measured with the Steady-Glo Luciferase Assay System (Promega, Madison, Wis.), using the manufacturer's lysis protocol. Relative light intensity was measured with a Tecan luminometer running Magellan software (Tecan, Research Triangle Park, N.C.) and reported as relative light units (RLU). Each plate contained three sets of quadruplicate controls: media-only (background), virus-only (peptide-free), and recombinant luciferase. Samples were run in duplicate and the % inhibition was calculated from the mean values using the formula: % Inhibition=1−(average RLU peptide+virus wells/average RLU virus only wells)×100.
Fifty-percent inhibitory concentration values (IC50) were calculated using the predicted exponential growth function in Microsoft Excel, which uses known x-y values to estimate a given x value (in this case concentration of peptide) that would correspond to a given y value (in this case IC50). Statistical comparisons were by paired t-tests, unless otherwise noted.

HIV-1 strain IIIB [2] = test: HIV-1 IIIB infection of H9 cells, p24 antigen ELISA; type: cell-based; conditions: H9 cells, IIIB (X4), peptide 10-20 μg/ml
Protocol: FIG. 1. Circular minidefensins reduce HIV-1 infection of H9 cells. HIV-I strain IIIB (MOI=10^−2) was incubated with 2.5×10^5 H9 cells in the presence or absence of 20 μg/ml RTD-1, RTD-2 or RTD-3. p24 antigen release was monitored by ELISA on days 3, 6, and 9. Assay sensitivity=10 pg/ml.
Immortalized CD4^+ H9 cells, which are permissive for infection with this strain, were maintained in RPMI supplemented with 10% heat-inactivated fetal calf serum (FCS), 10 mM HEPES, 2 mM glutamine, 100 U of penicillin/ml, and 10 μg of streptomycin/ml (R10 media). Cells (2.5×10^5/100 μl) were incubated with virus (multiplicity of infection (MOI)=10^−2) in the presence or absence of 20 μg/ml RTD-1, RTD-2 or RTD-3 for 3 hrs at 37° C./5% CO2. The cells were washed in R10 media, seeded in 48-well tissue culture plates in 1 ml R10 media, and incubated at 37° C./5% CO2 for 9 days. Aliquots of cell supernatant were removed at the specified time points and analyzed by a sensitive ELISA (DuPont NEN) that quantitates p24 antigen of HIV-1. The three circular rhesus minidefensins were similarly active, inhibiting HIV-1 by 100-1000 fold by 9 days post-inoculation (note the logarithmic scale).
as §1
Mature retrocyclin was prepared by a three-step process.

Molecule	inhibition of HIV-1 replication (p24) (HIV-1 strain JR-CSF)	inhibition of HIV-1 replication (p24) (HIV-1 strain IIIB [1])	protection against HSV-2 (HSV-2)	anti-HIV activity (primary HIV-1 isolates)	inhibition of HIV-1 replication (p24) (HIV-1 strain IIIB [2])
I2Y-Retrocyclin (cyclo(GYCRCICGRGICRCICGR); disulfide (positions not given here); ring closure inferred; not fully specified (bridges)) [RC-104, cyclic …]	considerable ability to protect cells; also recorded: substantial activity	relatively ineffective			
I6Y-Retrocyclin (cyclo(GICRCYCGRGICRCICGR); disulfide (positions not given here); ring closure inferred; not fully specified (bridges)) [RC-102, cyclic …]	considerable ability to protect cells; also recorded: substantial activity	either inactive or only modestly active; also recorded: relatively ineffective	less antiviral than retrocyclin		
R4Y-Retrocyclin [RC-106]	lack of efficacy	either inactive or only modestly active; also recorded: lack of efficacy		little or no anti-HIV activity	
R9Y-Retrocyclin [RC-107]	lack of efficacy	lack of efficacy			
R13Y-Retrocyclin (cyclo(GICICICGRGICYCICGR); disulfide (positions not given here); ring closure inferred; not fully specified (bridges)) [RC-108]	lack of efficacy	either inactive or only modestly active; also recorded: lack of efficacy			
B1					protective to a lesser extent than retrocyclin
B2					protective to a lesser extent than retrocyclin
